Measurements published in US20250049914A1, “STEROID ACID-PEPTIDE BASED INTRACELLULAR CARGO DELIVERY” (DEFENCE THERAPEUTICS INC., priority 2021, published 2025).
Where no end group is shown, it is not given here.

Tests used:
JIMT-1 cells = assay: Cas9-GFP delivery with Lipofectamine CRISPRMAX transfection reagent; format: cell-based
Experimental: To assess whether the enhanced intracellular delivery conferred by bile acid-NLS moieties is compatible with other delivery technologies, a delivery experiment in JIMT-1 cells was performed using Lipofectamine™ CRISPRMAX™ Cas9 Transfection Reagent (Thermo Fisher Scientific) according to the manufacturer's protocol, except that the cargo was Cas9-GFP alone or conjugated to/mixed with different bile acid-NLS moieties. The results are shown in Table 3 with GFP fluorescence values being normalized to that of cells incubated with the unconjugated cargo/transfection reagent alone (Cas9-GFP alone). […] Fluorescence microscopy experiments in live cells confirmed that the Cas9-GFP cargoes were successfully delivered to the nucleus of JIMT-1 cells (data not shown).

BMDCs = assay: Antigen-presentation assay using the B3Z reporter system, BMDCs; format: cell-based, mouse; conditions: BMDCs, OVA admixed, best conjugate: antigen ratio
Experimental: Mouse bone marrow derived DCs (BMDCs) were generated by flushing the whole marrow from mouse femurs using RPMI™ 1640 supplemented with 10% fetal bovine serum (FBS), 50 U/mL Penicillin-Streptomycin, 2 mM L-glutamine, 10 mM HEPES, 1% MEM Non-essential Amino Acids, 1 mM Sodium Pyruvate, 0.5 mM beta-mercaptoethanol. Following red blood cell lysis, cells were then cultured in media supplemented with 50 ng/mL murine recombinant GM-CSF. The media was changed on days 2, 4, 6 and 8. On day 9, the media was replaced to include recombinant murine GM-CSF and LPS from Escherichia coli 0111 (1 ng/mL) to stimulate DC maturation. Mature DCs were assessed by flow cytometry for their surface expression of CD3, CD19, NK1.1, CD11c, CD80, CD86, and I-A^b.
(§1) Various bile acid-NLS conjugates were screened using the B3Z reporter system. The B3Z cell line is a T-cell hybridoma specific for the H2-K^b-[…] complex. Once activated via its TCR, the LacZ reporter gene (under the NFAT promoter control) is expressed. Briefly, 1.5×10^5 BMDCs or 2.5×10^5 MSCs were co-cultured with 5×10^4 B3Z cells treated with the mixing conditions of ovalbumin (OVA) and bile acid-NLS conjugates for overnight at 37° C. with 5% CO2. The following day, all cells were washed twice with PBS (pH 7.4), and the cell pellets were lysed by adding 100 μL of a lysis buffer containing 0.15 mM chlorophenol red-beta-D-galactopyranoside (CPRG) substrate (Calbiochem, La Jolla, CA), 0.125% NP40 (EMD Sciences, La Jolla, CA), 9 mM MgCl2 (Aldrich, USA) and 100 mM 2-mercaptoethanol in PBS. After a 5- or 24-h incubation at 37° C., absorbance was taken at 570 nm with 636 nm as the reference wavelength. For these experiments, OVA was re-suspended in PBS (pH 7.3) at 5-10 mg/mL. The different bile acid-NLS conjugates were re-suspended in H2O at 10 mg/mL. Bile acid-NLS conjugate: antigen mixtures were prepared at different molar ratios according to Table 1.
Variants of CA-SV40NLS were synthesized in order to explore structure-activity relationships relating to the antigen cross-presentation enhancing activity observed for this conjugate, and therefore a measure of antigen/cargo delivery. More particularly, conjugates having different bile acids conjugated to the SV40NLS peptide (SEQ ID NO: 1) were synthesized and their effect on antigen presentation was evaluated by using the B3Z reporter system with the OVA antigen as described in Example 1. […] In FIG. 11, no increase in antigen cross-presentation in BMDCs over the antigen alone (“OVA”) was observed when OVA was mixed with either unconjugated cholic acid (“CA”) or SV40NLS peptide (“SV40NLS”), although lower sensitivity of the B3Z reporter system as compared to the OT-I CD8 T cell-based assay may have been a factor.
(§2) Further variants of CA-SV40NLS were synthesized in which the SV40NLS peptide was replaced with peptides comprising other NLS's (Table 5) and the antigen presentation activities of the CA-NLS peptide conjugates were evaluated using the B3Z reporter system as described in Example 1. The following conjugate: antigen molar ratios were tested for each conjugate: 2:1, 4:1, 8:1, 12:1 and 22:1. The results in FIGS. 12-15 compare the antigen presentation activities of different conjugates at the conjugate: antigen ratio that yielded the highest B3Z response (OD570) for that conjugate.

[1] = system: cross-presenting mesenchymal stromal cell line (cpMSC); assay: Antigen-presentation assay using the B3Z reporter system, cross-presenting MSC line; format: cell-based; conditions: cpMSCs, OVA admixed, vs OVA alone or OVA mixed with CA-SV40NLS
Experimental: as §1, §2

CA-HuR: cholic acid conjugated to HuR NLS peptide CGRFSPMGVDHMSGLSGVNVPG (SEQ ID NO: 13) (not fully specified (N-terminus); also: cholic acid conjugate, site not given here)
increase in intracellular Cas9-GFP delivery vs Cas9-GFP/transfection reagent alone (JIMT-1 cells): 17 fold | antigen-presentation activity of cholic acid-NLS peptide conjugates (B3Z response) (BMDCs): high antigen presentation activity | antigen-presentation activity of cholic acid-NLS peptide conjugates (B3Z response) [1]: strikingly high antigen-presentation activity
